Laboratory results: US20230302014A1, “USES OF GLUCOCORTICOID RECEPTOR (GR) ANTAGONIST AND ANDROGEN RECEPTOR (AR) DEGRADER COMBINATIONS” (ORIC Pharmaceuticals, Inc., priority 2020, published 2023)

Assays:
[1] = test system: AR target genes KLK3, KLK4, NKX3.1, FKBP5; test: Target gene assay (RT-qPCR, R1881-induced AR target genes); format: cell-based, Human; settings: 100 pM R1881; for AR target gene FKBP5 induced by R1881 / AR target gene KLK3 induced by R1881 / AR target gene KLK4 induced by R1881 / AR target gene NKX3.1 induced by R1881: 24 hours post treatment
Procedure: (§1) 10,000 LNCaP and CWR22PC cells per well were plated in triplicate in poly-lysine coated 96-well plates (ThermoFisher#152039) in 200 µL of RPMI-1640 media supplemented with 10% charcoal-stripped serum. 24 hours later, cells were treated with 100 pM of R1881 and 8-point dilution for enzalutamide, ARD1 or ARD2 with concentrations ranging from 1 µM to 0.46 nM. After incubation at 37° C. for 24 hours, media was removed, and cells were washed once with PBS. 55 µL per well of iScript RT-qPCR sample preparation reagent (Bio-Rad #1708898) was added and incubated for 2 minutes before lysate was collected for mRNA analysis. RT-qPCR was set up in triplicate using 3 µL of lysate plus 7 µL of pre-mixed SensiFAST™ SYBR No-ROX One-Step Kit reagents (BIOLINE, Cat# BIO-98005) per reaction. The RT-qPCR reactions were run on a Bio-Rad CFX384 Real-Time PCR System and data was plotted with GraphPad Prism 8 software.
as §1, with “15,000” for “10,000”, “24 hours later, cells were treated with 100 pM of R1881 and 8-point dilution for enzalutamide, ARD1 or ARD2 with concentrations ranging from 1 µM to 0.46 nM.” left out, “75” for “55”

GR mRNA = test: RT-qPCR of GR mRNA after time-dependent AR degrader treatment; format: cell-based, Human; settings: 30 nM dexamethasone, up to 15 days
Procedure: 5 million of LNCaP and CWR22PC cells per dish were plated in five 15-cm dishes in 20 mL of RPMI-1640 media supplemented with 10% charcoal-stripped serum (CSS) and cultured at 37° C. for 24 hours. Cells were treated with 30 nM of dexamethasone and with 100 nM of ARD1 or ARD2 and maintained at 37° C. until harvest. On Day 0, 6, 10, 13, and 15, cells were trypsinized, cell pellets were washed with 1XPBS and then divided for mRNA and protein preparation.
Adherent cells or cell pellets harvested for mRNA analysis were first washed once with PBS and then resuspended in 600 µL of RLT lysis buffer (Qiagen Inc.) supplemented with 1% of betamercaptoethanol. RNA was extracted by QIAcube using the RNeasy Mini QIAcube kit (Qiagen#74116) according to manufacturer’s instructions. The extracted RNA samples were then quantified using a Nanodrop 8000 Spectrophotometer. RT-qPCR reactions were set up in triplicate using 3 µL of 3 ng/ µL of RNA in 7 µL of pre-mixed SensiFAST™ SYBR No-ROX One-Step Kit reagents (BIOLINE# BIO-98005). The RT-qPCR reactions were run on a Bio-Rad CFX384 Real-Time PCR System and data was plotted with GraphPad Prism 8 software.
2 million of LNCaP and CWR22PC cells per dish were plated in five 10-cm dishes in 10 mL of RPMI-1640 media supplemented with 10% charcoal-stripped serum (CSS) and cultured at 37° C. for 24 hours. […]

N#Cc1ccc(O[C@H]2CC[C@H](NC(=O)c3ccc(N4CCC(CN5CCN(c6cc7c(cc6F)C(=O)N(C6CCC(=O)NC6=O)C7=O)CC5)CC4)nn3)CC2)cc1Cl (stereo partly drawn) [ARV-110, N-[trans-4-(3-chloro-4-cyanophenoxy)cyclohexyl]-6-[4-[[4-[2-(2,6-dioxo-3-piperidinyl)-6-fluoro-2,3-dihydro-1,3-dioxo-1H-isoindol-5-yl]-1-piperazinyl]methyl]-1-piperidinyl]-3-pyridazinecarboxamide]
AR target gene FKBP5 induced by R1881 ([1]; CWR22PC cells): inhibit | AR target gene KLK3 induced by R1881 ([1]; CWR22PC cells): inhibit | AR target gene KLK4 induced by R1881 ([1]; CWR22PC cells): inhibit | AR target gene NKX3.1 induced by R1881 ([1]; CWR22PC cells): inhibit | expression of AR target genes including KLK3, KLK4, NKX3.1, and FKBP5 ([1]; LNCaP and CWR22PC cells, 24 hours, 1 µM to 0.46 nM, potency compared with enzalutamide): in a dose-dependent manner with greater potency than AR antagonist enzalutamide | AR target gene FKBP5 induced by R1881 ([1]; LNCaP cells): inhibit | AR target gene KLK3 induced by R1881 ([1]; LNCaP cells): inhibit | AR target gene KLK4 induced by R1881 ([1]; LNCaP cells): inhibit | AR target gene NKX3.1 induced by R1881 ([1]; LNCaP cells): inhibit | GR transcript levels (GR mRNA; CWR22PC cells (moderate GR pre-treatment), 100 nM degrader): minimal | upregulation of GR mRNA levels (GR mRNA; GR-negative LNCaP cells, 100 nM ARV-110): ~ 7 fold
